# Tested on: Wnt1-tdTomato- MEFs
# Experiment: Conversion of MEFs into ciNCCs with M6 medium (Wnt1-tdTomato lineage tracing)
# Type: cell-based, mouse
# Settings: added to Chir99021, SB431542 and forskolin (FIG. 8C)
# Method: The basal medium contained knockout DMEM (Gibco), 10% KSR (Gibco), 10% FBS (Gibco), 1% NEAA (Gibco), and 0.1 mM 2-mercaptoethanol (Gibco) supplemented with the small molecules CHIR99021 (3 μM), SB431542 (5 μM), Forskolin (10 μM), VPA ([…]), EPZ004777 (5 μM), and 5-Aza-dC (0.5 μM). The medium was shaken for 30 min to ensure that all components were fully dissolved.
# The MEFs were plated at 5×10^4 cells per well on six-well tissue culture plates in fibroblast medium. The culture plates were precoated with fibronectin or laminin for more than 2 hours. After overnight culture, the medium was exchanged with M6 chemical medium, which was refreshed every 2 days. NCC-like cells appeared and increased at days 3 to 5. After 7 to 10 days of induction, FACS was performed to collect Wnt1^+ cells.
# For corneal endothelium is derived from NCCs, a two-step method for reprogramming mouse fibroblasts into CEC-like cells using small molecules was designed, in which the first step was to guide mouse embryonic fibroblasts (MEFs) to be chemically reprogrammed into ciNCCs. To identify small molecules with the potential to convert fibroblasts into ciNCCs, we used a lineage tracing strategy to trace the conversion process and excluded any NCCs or progenitor cells from the starting MEFs (FIGS. 8A and 15A). Wnt1-Cre transgenic mice have been validated as a lineage-tracing reporter model for NCC development. In Wnt1-Cre/ROSA26tdTomato mice, tdTomato protein was faithfully expressed in NCCs. MEFs were thus isolated from Wnt1-Cre/ROSA26tdTomato mice at embryonic day 13.5 (E13.5). Because the NCC population was marked with tdTomato, we performed fluorescence-activated cell sorting (FACS) to collect the tdTomato^− population to exclude any NCCs or progenitors (the purified cells are hereinafter referred to as Wnt1-tdTomato-MEFs; FIG. 15B). We confirmed that the Wnt1-tdTomato^− MEFs were also negative for other NCC markers, including Sox10, P75, Pax3, HNK1, and AP2α (FIGS. 15C and 15D). Further, these Wnt1-tdTomato^− MEFs were negative for typical NSC markers, including Sox2, Pax6 and Nestin (data not shown). […]
row,SMILES,effect of individual chemical on induction of Wnt1-tdTomato+ cells
1,CC(C)N(CCCNC(=O)Nc1ccc(C(C)(C)C)cc1)C[C@H]1O[C@@H](n2ccc3c(N)ncnc32)[C@H](O)[C@@H]1O [EPZ004777],further promoted induction of Wnt1-tdTomato^+ cells
2,"CCCC(CCC)C(=O)O [VPA, Valproic acid]",further promoted induction of Wnt1-tdTomato^+ cells
3,Nc1ncn([C@H]2C[C@H](O)[C@@H](CO)O2)c(=O)n1 [5-Aza-dC],further promoted induction of Wnt1-tdTomato^+ cells
